According to patent publication US8247399B2, “Photoactive metal nitrosyls for blood pressure regulation and cancer therapy” (The Regents of the University of California, priority 2004, dated 2012):

Key:
[1] = system: rat aortic rings; test: Relaxation of rat thoracic aorta rings precontracted with phenylephrine; settings: for concentration at which relaxation effect is shown: Ru-drug under UV light, DEA/NO control drug
Experimental: Male rats (200-250 g; Sprague-Dawley) were stunned and killed by cervical dislocation. The thoracic aortas were carefully removed, cleaned of connective tissue and cut into 3-4 ring segments of approximately 4 mm in length. Aortic rings were mounted in 10 mL organ baths containing Krebs-bicarbonate buffer (composition (mM): Na^+ 143; K^+ 5.9; Ca^2+ 2.5; Mg^2+ 1.2; Cl^− 128; HCO3^− 25; HPO4^2− 1.2; SO4^2− 1.2; D-glucose 11) maintained at 37° C. and gassed with 95% O2/5% CO2. Tension was initially set at 1 g and reset at intervals following an equilibrium period of 1 hour during which time fresh Krebs-bicarbonate buffer was replaced every 15-20 minutes. After equilibrium, the rings were primed with KCl (4.8×10^−2 M) before a supramaximal concentration of phenylephrine (PE; 10^−6 M) was added. Once this response had stabilized, acetylcholine (ACH; 10^−6M) was added to the bath to assess the integrity of endothelium of WT vessels. If the contractions to PE were not maintained, or relaxations greater than 50% of the PE-induced tone to ACH were not observed, the tissues were discarded.
Tissues were then washed for 30 minutes (by addition of fresh Krebs-bicarbonate buffer at 15 minutes intervals) after which cumulative concentrations of PE (10^−9-10^−6 M) were added to the organ bath. The tissues were then washed over 60 minutes to restore basal tone before contracting to approximately 80% of the maximum PE-induced response. Once a stable response to PE was achieved, cumulative concentration-response curves to the NO-donors were constructed in the presence and absence of light ([…]) and the soluble […] ODQ ([…]).

[2] = Photorelease (photodissociation) of NO from the metal nitrosyl in solution under illumination; assay type: physicochemical; settings: for type of light that releases NO: in DMF, UV-cut filters
Description: FIG. 7(A) provides a plot of KNO values versus light power. Increase in A550 of a solution of [(PaPy3)Fe(NO)](ClO4)2 in MeCN upon illumination with a 60 W tungsten lamp (Patra et al., Inorg Chem, 42:6812-6823, 2003), KNO (×10^3 s^−1)=5.60±0.014.
FIG. 8(C) provides a plot of the electronic absorption spectrum of [(bpb)Ru(NO)(Cl)] (broken line) and [(Me2bqb)Ru(NO)(Cl)] (solid line) in DMF. Both nitrosyls are photolabile.
(§1) Dashed line: met-Mb; dash-dot line: reduced Mb; dotted line: a mixture of [(PaPy3)Ru(NO)](BF4)2 and reduced Mb (1.5:1) under ordinary light (20 min); solid line: same mixture exposed to UV (30 s). […] Dash-dot line: oxidized and dash line: reduced enzyme; dotted line: reduced enzyme plus [(PaPy3)Ru(NO)](BF4)2 under ordinary light (20 min); solid line: same mixture exposed to UV light for 30 s (Patra and Mascharak, Inorg Chem, 42:7363-7365, 2003, herein incorporated by reference).
As described herein, nitrosyls like [Fe(PaPy3)(NO)](CIO4)2 and [Mn(PaPy3)(NO)](BF4)2 are converted into the corresponding solvato species [M(PaPy3)(solv)]^2+ following NO loss. Clean isosbestic points in the multiple trace spectra (e.g., FIG. 6B and FIG. 6C) indicate that the [M(PaPy3)(NO)]^2+→[M(PaPy3)(solv)]^2+ transformation is likely devoid of other intermediates. […] Preliminary actinometric measurements have afforded a quantum yield of 0.12 for the light reaction of [Ru(PaPy3)(NO)](BF4)2 in water. Collectively, these properties indicate that the nitrosyl complexes disclosed herein are good light-induced NO donors.
The light characteristics of any one of these metal nitrosyls can be changed (tuned) with minor alterations in the ligand frames such as changing a donor atom or ring size. This is a tremendous advantage of the present approach, thereby freeing users of this technology from the light requirements of photoactive nitrosyls of the prior art, which hereto have been found serendipitously. […] (BF4)2 releases NO only under UV light (λ<350 nm).

[3] = molecular target: T1, papain (Carica papaya, UniProt P00784); test: Papain inhibition under light (l-BApNA substrate); assay type: biochemical; settings: 3 mM nitrosyl 1 mL + papain 3 mg/mL 1 mL, 50 W tungsten lamp 3 min, 25° C., pH 6.2
T1 sequence (P00784 134-345): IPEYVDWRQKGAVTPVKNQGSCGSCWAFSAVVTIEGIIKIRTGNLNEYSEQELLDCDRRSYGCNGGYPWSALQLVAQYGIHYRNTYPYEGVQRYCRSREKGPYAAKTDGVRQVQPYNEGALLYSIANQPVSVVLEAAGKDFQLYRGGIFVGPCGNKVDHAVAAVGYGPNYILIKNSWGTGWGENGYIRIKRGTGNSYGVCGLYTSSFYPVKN
Experimental: Twice-crystallized papain was activated by stirring the enzyme in 50 mM phosphate buffer (pH 6.2) containing 10 mM dithiothreitol (DTT) for 24 h. The solution was then passed through a Pharmacia 20 mL desalting column equipped with a BioRad FPLC absorbance/electrical-conducting detector at 4° C. The activated protein (devoid of DTT) eluted from the column in 2 minutes at a flow rate of 2 mL/min, and was subsequently lyophilized and stored at −20° C.
Papain activity was determined spectrophotometrically at 410 nm by monitoring the formation of p-nitroaniline from the substrate Nα-Benzoyl-l-arginine-p-nitroanilide (l-BApNA). A 1.5 mM stock solution of l-BApNA was prepared in 50 mM phosphate buffer (pH 6.2, 1 mM EDTA, 0.1 M NaCl) and stored at room temperature. A 4.6 μM stock solution of active papain was also prepared in 50 mM phosphate buffer (pH 6.2, 1 mM EDTA, 0.1 M NaCl) and stored at 0° C. Finally, a freshly prepared 3.0 mM stock solution of 1 was prepared in 50 mM phosphate buffer (pH 6.2, 1 mM EDTA, 0.1 M NaCl) and stored in the dark.
[…] The mixture was then exposed to a 50 W tungsten bulb (Afshar at al., Inorg Chem, 43:5736-5743, 2004) for 60 s and 350 μL of the substrate was quickly added. The residual enzyme activity was monitored at 25° C. […] After each exposure, 350 μL of the substrate was added to the solution and the residual enzyme activity was monitored at 25° C. […]

[4] = system: rat aortic smooth muscle cells; test: cGMP generation in cultured rat aortic smooth muscle cells; assay type: cell-based
Experimental: Primary rat aortic smooth muscle cells were cultured and exposed to increasing log doses of Ru—NO with and without a 5 minute exposure to low-intensity UV light (λmax=254 nm) followed by a 10 minute incubation. The cells were then lysed and the cGMP production was assayed Cyclic GMP accumulation was measured using a commercially available ELISA kit (Amersham Biosciences) as per the manufacturer instructions.

[5] = system: reduced Mb; test: Light-triggered NO transfer to reduced myoglobin; assay type: biochemical; settings: aqueous solution, low intensity UV light 30 s, nitrosyl:Mb 1.5:1
Experimental: as §1
(§2) When this process is repeated in presence of reduced Mb, the 434 nm Soret band of reduced Mb is rapidly changed to 420 nm indicating formation of the Mb-NO adduct (FIG. 9B). Clearly [Ru(PaPy3)(H2O)](BF4)2 acts as an efficient NO donor that is activated by light. Similar results have been obtained with cytochrome c oxidase. Exposure of a mixture of [Ru(PaPy3)(H2O)](BF4)2 and reduced cytochrome c oxidase to UV light rapidly generated the NO adduct (Soret band at 428 nm, FIG. 9C). […] Other compounds according to the disclosure herein are known to, or are predicted to, have similar results with regard to being able to facilitate NO transfer to Mb and Hb.

[6] = system: reduced cyt c oxidase; test: Light-triggered NO transfer to reduced cytochrome c oxidase; assay type: biochemical; settings: low intensity UV light 30 s
Experimental: as §1, §2

Q: Which “concentration at which relaxation effect is shown” value [1] does the source give for `CCN(CC)/[N+]([O-])=N/[O-].[Na+]` [DEA/NO, reference compound] here?
A: 0.01 µM

Q: For [(Me2bqb)Ru(NO)(Cl)], which “type of light that releases NO” value [2] is on record?
A: releases NO upon illumination with visible light

Q: Which results are given for [(PaPy3)Fe(NO)](ClO4)2?
A: wavelength of light under which NO is released [2]: ~500 nm; KNO (rate of NO loss) ([2]; in MeCN, 60 W tungsten lamp): 5.60±0.014 ×10^3 s^−1

Q: Which “papain enzymatic activity after exposure” value [3] does the source give for [(PaPy3)Mn(NO)]ClO4 here?
A: completely eliminating the enzymatic activity

Q: For [(PaPy3)Ru(NO)](BF4)2, which “light dependence of relaxation effect” value [1] is on record?
A: only under exposure to light

Q: And the “concentration at which relaxation effect is shown” value [1]?
A: 10 µM

Q: And the “relaxation compared with conventional NO donor” value ([1]; UV light)?
A: comparable to that observed upon treatment of the tissue with a conventional NO donor (DEA/NO)

Q: What about the “contraction of tissue when the light was turned off” value ([1]; light turned off) of the same compound?
A: ~25%

Q: And the “increase in cGMP production” value ([4]; 0.1 mM, low-intensity UV light (λmax=254 nm) 5 min)?
A: 13 fold

Q: And the “increase in cGMP concentration in the dark” value ([4]; dark)?
A: not observed in the dark

Q: What about the “formation of Mb-NO adduct” value [5] of the same compound?
A: conversion of reduced Mb to Mb-NO

Q: What about the “formation of cyt c oxidase NO-adduct” value [6] of the same compound?
A: conversion of reduced cyt c oxidase to its NO-adduct

Q: What about the “wavelength of light under which NO is released” value [2] of the same compound?
A: < 350 nm

Q: What about the “quantum yield of the light reaction” value ([2]; in water, preliminary actinometric measurements) of the same compound?
A: 0.12

Q: For [(bpb)Ru(NO)(Cl)], which “type of light that releases NO” value [2] is on record?
A: releases NO upon illumination with UV light
